From publication PMC3963473, “Structure–Activity Relationship Studies of Pyrrolone Antimalarial Agents” (Chemmedchem, 2013)
In brackets after ≈: the same amount, converted by molar mass. Where two headings read alike, the source gives them in different places.

What was measured:
[1] = tested on: L6 cells; assay: In vitro cytotoxicity assay in L6 cells (Alamar Blue); assay type: cell-based; conditions: Rattus norvegicus, mean of two independent assays, read-out: EC50 L6 cells
Method: (§1) V. Design and Results of the in vitro & in vivo Studies.
A. Drug inhibition of in vitro cultured P. falciparum parasite:2 All in vitro assays were carried out twice independently. In vitro activity against the erythrocytic stages of P. […]
B. In vitro cytotoxicity assay:2 Assays were performed in 96-well microtiter plates, each […]
mM) and 10% fetal bovine serum, and 4 x 10^4 L-6 cells (a primary cell line derived from rat skeletal myoblasts). Serial drug dilutions of seven 3-fold dilution steps covering a range […]
After 72 h of incubation the plates were inspected […]
of Alamar Blue was then added to each well and the plates incubated for another 2 h.
Then the plates were read with a Spectramax Gemini XS microplate fluorometer (Molecular Devices Cooperation, Sunnyvale, CA, USA) using an excitation wave length of […]
Data were analysed using the microplate reader software Softmax Pro (Molecular Devices Cooperation, Sunnyvale, CA, USA).

[2] = tested on: Plasmodium falciparum K1; assay: microbe, parasite or virus in culture; assay type: cell-based; conditions: for EC50: Plasmodium falciparum, K1, read-out: EC50 P. falc.
Method: as §1
A. Drug inhibition of in vitro cultured P. falciparum parasite:2 All in vitro assays were carried out twice independently. In vitro activity against the erythrocytic stages of P. falciparum was determined by using a 3H-hypoxanthine incorporation assay,5-6 using the […]
were dissolved in DMSO at 10 mg/mL and added to parasite cultures incubated in RPMI […]
haematocrit (0.3% parasitaemia). Serial doubling dilutions of each drug were prepared in […]
After 48 h, 50 µL of 3H-hypoxanthine (= 0.5 µCi) was added to each well of the plate. The plates were incubated for an additional 24 h under the same conditions. The plates were then harvested with a Betaplate cell harvester (Wallac, Zurich, Switzerland), and the red blood cells were transferred onto a glass fiber filter and then washed with distilled water. The dried filters were inserted into a plastic foil with 10 mL of scintillation fluid and were counted in a Betaplate™ liquid scintillation counter (Wallac, Zurich, […]

[3] = Aqueous solubility estimated by nephelometry; assay type: physicochemical; conditions: kinetic from dmso stock
Method: III. Physicochemical Evaluation […]
Solubility Estimation: Aqueous solubility was estimated by nephelometry.
Compound in DMSO was spiked into either water, pH 6.5 phosphate buffer or 0.01N HCl
(approx. pH 2.0) with the final DMSO concentration being 1%. Samples were then
analyzed by Nephelometry to determine the solubility range as described previously.1

[4] = tested on: green fluorescent protein (GFP)-transfected Plasmodium berghei ANKA; assay type: in vivo; conditions: for [%] Reduction parasitaemia: mice, 10 % DMSO in water; for Survival: in vivo
Method: In vivo efficacy studies: The protocols are described in the Supporting Information. In vivo efficacy studies in mice were conducted at the Swiss Tropical & Public Health Institute (Basel, Switzerland) according to the rules and regulations for the protection of animal rights (“Tierschutzverordnung”) of the Swiss “Bundesamt für Veterinärwesen”. They were approved by the veterinary office of Canton Basel-Stadt, Switzerland.
C. In vivo antimalarial efficacy studies (4 days treatment).2
In vivo antimalarial activity was assessed basically as previously described. Groups of […]
erythrocytes on day 0 with GFP-transfected P. berghei strain ANKA. .Unless otherwise indicated compounds were formulated in 100% DMSO, diluted 10-fold in distilled water and administered intraperitoneally or orally in a volume of 10 mL kg-1 on four consecutive days (4, 24, 48 and 72 h post infection). Parasitemia was determined on day 4 post infection (24 h after last treatment) by FACS analysis. Activity was calculated as the difference between the mean per cent parasitaemia for the control (n=5 mice) and treated groups expressed as a per cent relative to the control group. The survival time in days was also recorded up to 30 days after infection. A compound was considered curative if the animal survived to day 30 after infection with no detectable parasites. All protocols and procedures used in the current study were reviewed and approved by the local veterinary authorities of the Canton Basel-Stadt.

[5] = tested on: Plasmodium berghei; parameters: method as in PMID 23517371; conditions: P. berghei mouse model; dosed intraperitoneally; cited from earlier work
[6] = Table 1, A-ring variants, mammalian L6 cells
[7] = aqueous buffer, pH 6.5 phosphate buffer, nephelometry, 1% DMSO, read-out: Solubility pH 6.5
[8] = Table 1, water, nephelometry, 1% DMSO, read-out: Solubility water
[9] = simulated gastric fluid, pH 2.0 (0.01N HCl), nephelometry, 1% DMSO, read-out: Solubility pH 2.0
[10] = Table 2, C-ring variants, L6 cells
[11] = Table 2, water, read-out: Solubility water

Row | SMILES | EC50 [1, 6] [nM] | EC50 [2] [nM] | melting point [°C] | solubility [3, 8] [µM] | EC50 [1, 10] [nM] | solubility [3, 11] [µM] | also measured
1 | CCOC(=O)C1=C(C)N/C(=C/c2cc(C)n(C3CCN(Cc4ccccc4)CC3)c2C)C1=O [Compound 17, (E)-Ethyl 5-((1-(1-benzylpiperidin-4-yl)-2,5-dimethyl-1H-pyrrol-3-yl)methylene)-2-methyl-4-oxo-4,5-dihydro-1H-pyrrole-3-carboxylate] | 20000 | 35 | 150 to 155 | > 125 | – | – | solubility [3, 7]: 14 to 28 µM (≈ 6.27 to 12.5 µg/mL); solubility [3, 9]: 56 to 110 µM (≈ 25.1 to 49.2 µg/mL)
2 | Cc1cc(/C=C2/Nc3cc[nH]c(=O)c3C2=O)c(C)n1-c1ccccc1C(F)(F)F [Compound 56] | – | 47 | – | – | 54000 | > 125 | [%] Reduction parasitaemia ([4]; 50 mg kg^−1 day^−1 ip): 21.8%; [%] Reduction parasitaemia ([4]; 100 mg kg^−1 day^−1 po): 13.6%; Survival ([4]; ip): 4 days; Survival ([4]; po): 4 days
3 | CCOC(=O)C1=C(C)N/C(=C/c2cc(C)n(C3CCN(CC4CCCCC4)CC3)c2C)C1=O [Compound 40] | 13000 | 16 | 184 to 186 | > 125 | – | – | –
4 | CCOC(=O)C1=C(C)N/C(=C/c2cc(C)n(C3CCN(C(C)c4ccccc4C(F)(F)F)CC3)c2C)C1=O (stereo not shown) [Compound 36] | 3000 | 1 | 138 to 142 | > 125 | – | – | –
5 | Cc1cc(/C=C2/Nc3ccn(C)c(=O)c3C2=O)c(C)n1-c1ccccc1C(F)(F)F [Compound 57] | – | 14 | – | – | 29000 | > 125 | [%] Reduction parasitaemia ([4]; 50 mg kg^−1 day^−1 ip): 99.9%; [%] Reduction parasitaemia ([4]; 100 mg kg^−1 day^−1 po): 50.5%; Survival ([4]; po): 8 days
6 | CCOC(=O)C1=C(C)N/C(=C/c2cc(C)n(C3CCN(Cc4ccc(F)cc4C(F)(F)F)CC3)c2C)C1=O [Compound 44] | 1200 | 0.4 | 145 to 148 | > 125 | – | – | EC50 (P. falciparum K1) ([2]; values in nM): sub-nanomolar
7 | CCOC(=O)C1=C(C)N/C(=C/c2cc(C)n(C3CCN(c4ccc(C(F)(F)F)cc4)CC3)c2C)C1=O [Compound 30] | 10000 | 24 | 153 to 158 | > 125 | – | – | –
8 | CCOC(=O)C1=C(C)N/C(=C/c2cc(C)n(C3CCN(Cc4ccc(-c5noc(C)n5)cc4)CC3)c2C)C1=O [Compound 51] | 11000 | 1 | 195 to 200 | > 125 | – | – | –
9 | Cc1cc(/C=C2/Nc3ccn(Cc4ccncc4)c(=O)c3C2=O)c(C)n1-c1ccccc1C(F)(F)F [Compound 64] | – | 77 | 215 to 240 | – | 38000 | > 125 | –
10 | Cc1cc(/C=C2/Nc3ccn(Cc4ccc(C(F)(F)F)cc4)c(=O)c3C2=O)c(C)n1-c1ccccc1C(F)(F)F [Compound 63] | – | 46 | 235 to 240 | – | 54000 | 89 (≈ 49.6 µg/mL) | –
11 | CCn1ccc2c(c1=O)C(=O)/C(=C\c1cc(C)n(-c3ccccc3C(F)(F)F)c1C)N2 [Compound 58] | – | 21 | 204 to 205 | – | 36000 | > 125 | –
12 | CCOC(=O)C1=C(C)N/C(=C/c2cc(C)n(C3CCN(CC)CC3)c2C)C1=O [Compound 20] | 7600 | 2400 | 140 to 145 | – | – | – | solubility [3, 7]: > 250 µM; solubility [3, 9]: > 250 µM
13 | CCOC(=O)C1=C(C)N/C(=C/c2cc(C)n(C3CCN(Cc4cocn4)CC3)c2C)C1=O [Compound 48] | 160 | 18 | 180 to 182 | > 125 | – | – | –
14 | CCOC(=O)C1=C(C)N/C(=C/c2cc(C)n(C3CCN(Cc4ccc(C(F)(F)F)nc4)CC3)c2C)C1=O [Compound 43] | 49000 | 4 | – | > 125 | – | – | [%] Reduction parasitaemia ([4]; 50 mg kg^−1 day^−1 ip): 10.0%; activity in vivo (in words) ([4]; 50 mg/kg ip and 100 mg/kg po): failed to show significant activity in vivo; [%] Reduction parasitaemia ([4]; 100 mg kg^−1 day^−1 po): 0.0%; Survival ([4]; ip): 4 days; Survival ([4]; po): 4 days
15 | CCOC(=O)C1=C(C)N/C(=C/c2cc(C)n(-c3ccccc3C(F)(F)F)c2C)C1=O [TDR32750] | – | – | – | – | – | – | depression of parasitaemia [5]: > 99%
